Reference: US20090022803A1, “Oral Formulations For Delivery of Catecholic Butanes Including Ndga Compounds” (priority 2005, published 2009)
Like-named read-outs stand apart in the source and are kept apart here.

Assay type: physicochemical
Settings: for Dissolution After Heating: 90° C.
Protocol: A 10 mL solution of M4N at a concentration of about 10 mg/mL in 40% BP-β-CD was made as follows. About 10 mL of the 40% HP-β-CD solution were added to a glass beaker containing a stir bar. The beaker was placed on a magnetic plate and the stir bar was set to stir at medium speed. About […] of M4N were slowly added to the 40% HP-β-CD in the center of the beaker with the aid of a spatula. The M4N/40% HP-β-CD mixture was stirred for 2 hr or until all M4N was uniformly suspended without any clumps being present. The M4N/40% HP-β-CD mixture was optionally heated at 80° C. for about 30 min. (or longer if a larger volume of solution was desired, for example, 1 hr at 80° C. for 100 mL of the M4N/HP-β-CD mixture), or longer as needed to ensure complete dissolution of M4N. […] The final M4N/40% HP-β-CD solution was stored at room temperature and was kept protected from light. This process may be scaled up or down to obtain the requisite volume or concentration of M4N. Formulations containing M4N in other cyclodextrin solutions may be similarly made, such as, for example, by substituting HP-β-CD in the process described above with other cyclodextrins. […]
A 10 mL solution of M4N at a concentration of about 10 mg/mL in 50% HP-β-CD/0.5% HPMC was made as follows. About 10 mL of the 50% HP-β-CD/0.5% HPMC solution were added to a glass beaker containing a stir bar. The beaker was placed on a magnetic plate and the stir bar was set to stir at medium speed. About 100 mg of M4N were slowly added to the 50% HP-β-CD/0.5% HPMC in the center of the beaker with the aid of a spatula. The M4N/50% HP-β-CD/0.5% HPMC mixture was stirred for 24 hr or until all M4N was uniformly suspended without any clumps being present. The M4N/50% HP-β-CD/0.5% HPMC mixture was heated at about 90° C. for about 30 min. (or longer if a larger volume of solution was desired, for example, 1 hr at 90° C. for 500 mL of the M4N/50% HP-β-CD/0.5% HPMC mixture), or longer as needed to ensure complete dissolution of M4N. […] The final M4N/50% HP-β-CD/0.5% HPMC solution was stored at room temperature and was kept protected from light.
A 10 mL solution of M4N at a concentration of about 20 mg/mL in 5% EC (w/v) (the “EC formulation”) was made as follows. About 10 mL of 5% EC formulation, made as described above, were added to a glass beaker containing a stir bar. The beaker was placed on a magnetic plate and the stir bar was set to stir at medium speed, and covered with a round Teflon® cover. About 200 mg of M4N were slowly added to the 5% EC formulation in the center of the beaker with the aid of a spatula to prevent M4N from sticking to the beaker wall. The M4N/EC mixture was stirred for 2 hr or until all M4N had dissolved or was uniformly suspended without any clumps being present. The M4N/EC mixture was heated at about 60° C. for about 30 min. (or longer if a larger volume of solution was desired, for example, 1 hr at 60° C. for 500 mL of the M4N/EC mixture), or longer as needed to ensure complete dissolution of M4N. […] The final M4N/EC solution was stored at room temperature and was kept protected from light.
A 10 mL solution of M4N at a concentration of about 50 mg/mL in sesame oil was made as follows. About 10 mL of sesame oil were added to a glass beaker containing a stir bar. The beaker was placed on a magnetic plate and the stir bar was set to stir at medium speed. About 500 mg of M4N were slowly added to the sesame oil in the center of the beaker with the aid of a spatula to prevent M4N from sticking to the beaker wall. The M4N/sesame oil mixture was stirred for about 2 hr or until all M4N had dissolved or was uniformly suspended without any clump being present. The M4N/sesame oil mixture was heated at about 60° C. for about 30 min. (or longer if a larger volume of solution was desired, for example, 1 hr at 60° C. for 500 mL of the M4N/sesame oil mixture), or longer as need to ensure complete dissolution of M4N. […]

[1] = M4N 1 mg/mL in 40% HP-β-CD, 1% PVP (w/v)
[2] = M4N 1 mg/mL in 50% HP-β-CD, 0.5% HPMC
[3] = M4N 1 mg/mL in 50% HP-β-CD, 1.25% PVP (w/v)
[4] = M4N 3.13 mg/mL in 5% HP-β-CD, 12.5% PEG 300 (v/v)
[5] = M4N 4.17 mg/mL in 6.7% HP-β-CD, 16.7% PEG 300 (v/v)
[6] = M4N 6.25 mg/mL in 10% HP-β-CD, 25% PEG 300 (v/v)
Wherever Dissolution After Cool Down is given: key: N represents 'No'; Y represents 'Yes.'.

COc1ccc(C[C@@H](C)[C@@H](C)Cc2ccc(OC)c(OC)c2)cc1OC [Formulation M4N, meso-1,4-bis(3,4-dimethoxyphenyl)-2,3-dimethylbutane]
suspension: Dissolution After Rotation (M4N 10 mg/mL in 1% HPMC)
Y: Dissolution After Rotation (M4N 1 mg/mL in 5% EC in EtOH) | Dissolution After Cool Down (M4N 1 mg/mL in 20% HP-β-CD) | Dissolution After Cool Down (M4N 1 mg/mL in 30% HP-β-CD) | Dissolution After Cool Down (M4N 1 mg/mL in 40% HP-β-CD) | Dissolution After Cool Down (M4N 1 mg/mL in 50% HP-β-CD) | Dissolution After Cool-Down [2] | Dissolution After Cool Down [3] | Dissolution After Cool-Down (M4N 1 mg/mL in Corn Oil) | Dissolution After Cool Down [4] | Dissolution After Cool Down [5] | Dissolution After Cool Down [6] | Dissolution After Cool-Down (M4N 10 mg/mL in 5% EC in EtOH) | Dissolution After Cool Down (M4N 10 mg/mL in 30% HP-β-CD)
Y at 80°: Dissolution After Heating at X° C. (M4N 1 mg/mL in 40% HP-β-CD, 80°)
Suspension: Dissolution After Rotation (M4N 1 mg/mL in 50% HP-β-CD, 0.5% CMC) | Dissolution After Rotation (M4N 1 mg/mL in 50% HP-β-CD, 0.5% HPMC, other experiment, no heat)
Y at 60°: Dissolution After Heating at X° C. (M4N 3.13 mg/mL in 5% HP-β-CD, 12.5% PEG 300 (v/v), 60°) | Dissolution After Heating at X° C. (M4N 4.17 mg/mL in 6.7% HP-β-CD, 16.7% PEG 300 (v/v), 60°) | Dissolution After Heating at X° C. (M4N 6.25 mg/mL in 10% HP-β-CD, 25% PEG 300 (v/v), 60°)
N at 80°: Dissolution After Heating at X° C. (M4N 1 mg/mL in 40% HP-β-CD, 2.5% PG (v/v), 80°)
Y at 90°: Dissolution After Heating at X° C. (M4N 1 mg/mL in 20% HP-β-CD, 90°) | Dissolution After Heating at X° C. (M4N 1 mg/mL in 30% HP-β-CD, 90°) | Dissolution After Heating at X° C. (M4N 1 mg/mL in 50% HP-β-CD, 1.25% PVP (w/v), 90°) | Dissolution After Heating at X° C. (M4N 1 mg/mL in 50% HP-β-CD, 90°) | Dissolution After Heating at X° C. (M4N 10 mg/mL in 30% HP-β-CD, 90°)
N at 90°: Dissolution After Heating at X° C. (M4N 1 mg/mL in 1.50% β-CD, 90°) | Dissolution After Heating at X° C. (M4N 1 mg/mL in 5% γ-CD, 90°) | Dissolution After Heating at X° C. (M4N 1 mg/mL in 15% α-CD, 90°) | Dissolution After Heating at X° C. (M4N 10 mg/mL in 1.50% β-CD, 90°) | Dissolution After Heating at X° C. (M4N 10 mg/mL in 15% α-CD, 90°) | Dissolution After Heating at X° C. (M4N 10 mg/mL in 20% HP-β-CD, 90°)
N: Dissolution After Rotation (M4N 1 mg/mL in 1.50% β-CD) | Dissolution After Rotation (M4N 1 mg/mL in 2% MC (Low viscosity)) | Dissolution After Rotation (M4N 1 mg/mL in 2.3% HPMC) | Dissolution After Rotation (M4N 1 mg/mL in 5% γ-CD) | Dissolution After Rotation (M4N 1 mg/mL in 15% α-CD) | Dissolution After Rotation (M4N 1 mg/mL in 20% HP-β-CD) | Dissolution After Rotation (M4N 1 mg/mL in 20% HP-β-CD in saline) | Dissolution After Rotation (M4N 1 mg/mL in 30% HP-β-CD) | Dissolution After Rotation (M4N 1 mg/mL in 40% HP-β-CD) | Dissolution After Heating at X° C. [1] | Dissolution After Rotation [1] | Dissolution After Rotation (M4N 1 mg/mL in 40% HP-β-CD, 2.5% PG (v/v)) | Dissolution After Rotation (M4N 1 mg/mL in 50% HP-β-CD) | Dissolution After Rotation [2] | Dissolution After Rotation [3] | Dissolution After Rotation [4] | Dissolution After Rotation [5] | Dissolution After Rotation [6] | Dissolution After Rotation (M4N 10 mg/mL in 1.50% β-CD) | Dissolution After Rotation (M4N 10 mg/mL in 2.3% HPMC) | Dissolution After Rotation (M4N 10 mg/mL in 5% EC in EtOH) | Dissolution After Rotation (M4N 10 mg/mL in 15% α-CD) | Dissolution After Rotation (M4N 10 mg/mL in 20% HP-β-CD) | Dissolution After Rotation (M4N 10 mg/mL in 20% HP-β-CD in saline) | Dissolution After Rotation (M4N 10 mg/mL in 30% HP-β-CD)
N at 90 °C: Dissolution After Heating (M4N 1 mg/mL in 2.3% HPMC) | Dissolution After Heating (M4N 10 mg/mL in 2.3% HPMC)
